“And” between values parts separate entries of the source, which are not always exact repeats. Identical values can stand only once. Like-named read-outs stand apart in the source and are kept apart here.
Columns and labels:
[1] = Solubility of PPTN at pH ranges suitable for intravenous injection; type: physicochemical
Experimental: The solubility of PPTN at pH ranges suitable for intravenous injection was analyzed. PPTN (HCl salt) was dissolved in DMSO to make a stock solution, and the stock solution was diluted into various aqueous solutions. […] The solutions were then adjusted to achieve a pH ≥5.0, and the solutions were observed again.

[2] = Potency and purity of diluted dosing solutions after manufacture and shipping; type: physicochemical; conditions: for [KB-1801] determined by HPLC assay: shipped at ambient temperature
Experimental: The stability of high-concentration PPTN solutions containing SBECD were analyzed under conditions used for product manufacturing and distribution. A stock solution containing 8.6 mg/mL PPTN, 12% SBECD in saline was prepared as described above and shipped under refrigerated conditions. Seven days after manufacture, the stock solution was diluted to make dosing solutions for administration as a continuous intravenous infusion as indicated in Table 14 and Table 15.
Samples of diluted dosing solutions were shipped at ambient temperature and analyzed for PPTN (KB-1801) potency and purity.

[3] = Plasma concentrations during 24-hour continuous intravenous infusion; type: in vivo, Sprague-Dawley rats; conditions: for Female/Male C24h Ratio: 24-hour intravenous infusion; for concentration at 1 h / concentration at 2 h / concentration at 4 h / concentration at 6 h / concentration at 8 h / concentration at 24 h: Sprague-Dawley, rat, plasma, iv
Experimental: The safety and pharmacokinetics of PPTN (KB-1801) in rats receiving continuous intravenous injections of SBECD-containing solutions were analyzed. Three cohorts of six male and six female rats each were given continuous intravenous infusion of PPTN (KB-1801) at 10 mg/kg/day, 30 mg/kg/day or 100 mg/kg/day in a dosing solution containing PPTN at 0.25 mg/mL, 0.75 mg/mL or 2.5 mg/mL and SBECD at about 3.8%. Dosing volume was 40 mIkg/day. [table]

[4] = dosing solution, targeted [KB-1801] 0.25 mg/mL
[5] = dosing solution, targeted [KB-1801] 0.75 mg/mL
[6] = dosing solution, targeted [KB-1801] 2.5 mg/mL
[7] = female, 10 mg/kg, female Sprague-Dawley rats, 24-hour intravenous infusion at 10 mg/kg, read-out: Plasma concentration, Mean
[8] = female, 10 mg/kg, female Sprague-Dawley rats, 24-hour intravenous infusion at 10 mg/kg, read-out: Plasma concentration, individual animal
[9] = female, 30 mg/kg, female Sprague-Dawley rats, 24-hour intravenous infusion at 30 mg/kg, read-out: Plasma concentration, Mean
[10] = female, 30 mg/kg, female Sprague-Dawley rats, 24-hour intravenous infusion at 30 mg/kg, read-out: Plasma concentration, individual animal
[11] = female, 100 mg/kg, female Sprague-Dawley rats, 24-hour intravenous infusion at 100 mg/kg, read-out: Plasma concentration, Mean
[12] = female, 100 mg/kg, female Sprague-Dawley rats, 24-hour intravenous infusion at 100 mg/kg, read-out: Plasma concentration, individual animal

With `O=C(O)c1cc(-c2ccc(C3CCNCC3)cc2)c2ccc(-c3ccc(C(F)(F)F)cc3)cc2c1` [KB-1801, 4-[4-(piperidin-4-yl)phenyl]-7-[4-(trifluoromethyl)phenyl]-2-naphthoic acid] as the compound, how does the “Solution appearance at 24 hours” value ([1]; 0.015 mg/mL (~29 μM), 1.5 mg DMSO stock solution diluted 100x in water, pH 4-5) read?
Its value is “Clear”.

And the “Remarks when pH adjusted to 5-5.5” value ([1]; 1.0 mg/mL, DMAc/Water (10/90, v/v), initial pH ~2)?
Its value is “Became cloudy”.

What about the “Solution appearance at 24 hours” value ([1]; 5.0 mg/mL, 1.5 mg DMSO stock solution diluted 100x in PBS (20 mM), pH 5-6) of the same compound?
The value was “Hazy”.

What about the “Remarks when pH adjusted to 5-5.5, after sonication” value ([1]; 5.0 mg/mL, DMAc/Water (10/90, v/v) with ~0.1% Tween 80, after sonication) of the same compound?
Its value is “became clear”.

What about the “Remarks when pH adjusted to 5-5.5” value ([1]; 5.0 mg/mL, DMAc/Water (10/90, v/v) with ~0.1% Tween 80, initial pH 1-2) of the same compound?
The value was “Became slightly cloudy;”.

What about the “Remarks when pH adjusted to 5-5.5” value ([1]; 5.0 mg/mL, DMAc/Water (10/90, v/v), initial pH 1-2) of the same compound?
Its value is “Became very cloudy”.

And the “Remarks when pH adjusted to 5-5.5” value ([1]; 5.0 mg/mL, NMP/Water (10/90, v/v), initial pH 1-2)?
Its value is “Became very cloudy”.

And the “Remarks when pH adjusted to 5-5.5” value ([1]; 5.0 mg/mL, Propylene Glycol/Water (10/90, v/v), initial pH 1-2)?
The value was “Became very cloudy”.

And the “Concentration higher than target concentrations” value ([2]; all dosing solution samples)?
The value was 1.6-8.0%.

And the Degradation products ([2]; all dosing solution samples)?
Its Degradation products is “No evidence of degradation products was observed in any sample”.

What about the “Impurity profile by HPLC area %” value [2, 4] of the same compound?
The value was “No imp > 0.10 a %”.

What about the “[KB-1801] determined by HPLC assay” value [2, 4] of the same compound?
The value was 0.27 mg/mL and 0.26 mg/mL.

And the “Impurity profile by HPLC area %” value [2, 5]?
The value was “No imp > 0.10 a %”.

What about the “[KB-1801] deviation from targeted concentration” value [2, 5] of the same compound?
The value was “+1.3%”.

What about the “[KB-1801] determined by HPLC assay” value [2, 5] of the same compound?
Its value is 0.76 mg/mL.

And the “Impurity profile by HPLC area %” value [2, 6]?
The value was “No imp > 0.10 a %”.

And the “[KB-1801] determined by HPLC assay” value [2, 6]?
The value was 2.56 mg/mL and 2.57 mg/mL.

And the “Female/Male C24h Ratio” value ([3]; Group 6, 10 mg/kg)?
Its value is 1.36.

And the “Female/Male C24h Ratio” value ([3]; Group 7, 30 mg/kg)?
The value was 0.88.

What about the “Female/Male C24h Ratio” value ([3]; Group 8, 100 mg/kg) of the same compound?
Its value is 0.93.

What about the concentration at 1 h [3, 7] of the same compound?
Its concentration at 1 h is 216 ng/mL.

What about the concentration at 2 h [3, 7] of the same compound?
The concentration at 2 h was 281 ng/mL.

What about the concentration at 2 h [3, 8] of the same compound?
The concentration at 2 h was 383 ng/mL.

And the concentration at 4 h [3, 7]?
The concentration at 4 h was 426 ng/mL.

What about the concentration at 4 h [3, 8] of the same compound?
Its concentration at 4 h is 445 ng/mL.

And the concentration at 6 h [3, 7]?
Its concentration at 6 h is 569 ng/mL.

What about the concentration at 6 h [3, 8] of the same compound?
Its concentration at 6 h is 726 ng/mL.

And the concentration at 8 h [3, 7]?
Its concentration at 8 h is 526 ng/mL.

What about the concentration at 8 h [3, 8] of the same compound?
Its concentration at 8 h is 678 ng/mL.

And the concentration at 24 h [3, 7]?
Its concentration at 24 h is 954 ng/mL.

And the concentration at 24 h [3, 8]?
Its concentration at 24 h is 753 ng/mL.

What about the concentration at 1 h [3, 9] of the same compound?
Its concentration at 1 h is 641 ng/mL.

And the concentration at 1 h [3, 10]?
Its concentration at 1 h is 603 ng/mL.

What about the concentration at 2 h [3, 9] of the same compound?
Its concentration at 2 h is 1430 ng/mL.

And the concentration at 2 h [3, 10]?
Its concentration at 2 h is 1950 ng/mL.

What about the concentration at 4 h [3, 9] of the same compound?
Its concentration at 4 h is 1530 ng/mL.

And the concentration at 4 h [3, 10]?
Its concentration at 4 h is 1250 ng/mL.

And the concentration at 6 h [3, 9]?
The concentration at 6 h was 1640 ng/mL.

And the concentration at 6 h [3, 10]?
The concentration at 6 h was 1390 ng/mL.

What about the concentration at 8 h [3, 9] of the same compound?
Its concentration at 8 h is 1730 ng/mL.

And the concentration at 8 h [3, 10]?
Its concentration at 8 h is 1740 ng/mL.

What about the concentration at 24 h [3, 9] of the same compound?
The concentration at 24 h was 2500 ng/mL.

What about the concentration at 1 h [3, 11] of the same compound?
The concentration at 1 h was 2040 ng/mL.

What about the concentration at 1 h [3, 12] of the same compound?
Its concentration at 1 h is 2630 ng/mL.

And the concentration at 2 h [3, 11]?
The concentration at 2 h was 2310 ng/mL.

And the concentration at 4 h [3, 11]?
Its concentration at 4 h is 5210 ng/mL.

And the concentration at 4 h [3, 12]?
Its concentration at 4 h is 4540 ng/mL.

And the concentration at 6 h [3, 11]?
Its concentration at 6 h is 4300 ng/mL.

What about the concentration at 6 h [3, 12] of the same compound?
The concentration at 6 h was 3550 ng/mL.

And the concentration at 8 h [3, 11]?
The concentration at 8 h was 5660 ng/mL.

What about the concentration at 8 h [3, 12] of the same compound?
Its concentration at 8 h is 6390 ng/mL.

And the concentration at 24 h [3, 11]?
Its concentration at 24 h is 8150 ng/mL.

What about the concentration at 24 h [3, 12] of the same compound?
Its concentration at 24 h is 5590 ng/mL.

What about the concentration at 1 h ([3]; male, 10 mg/kg, male Sprague-Dawley rats, 24-hour intravenous infusion at 10 mg/kg, read-out: Plasma concentration, Mean) of the same compound?
The concentration at 1 h was 216 ng/mL.

Reference: patent US20220202799A1, “PHARMACEUTICAL FORMULATIONS CONTAINING P2Y14 ANTAGONISTS” (priority 2019, published 2022)
